Values quoted from earlier work in patent US20150290272A1, “PHARMACEUTICAL COMPOSITION FOR PREVENTING/TREATING BRAIN INJURY AND ENHANCING RECOVERY OF SEQUELAE AND MANUFACTURE THEREOF” (PhytoHealth Corporation, priority 2014, published 2015).

Test system: acute ischemic stroke

In the case of “rtPA: thrombolysis agent recombinant tissue plasminogen activator (rt-PA) (Actilyse) for acute ischemic stroke”, the “increase in the number of people living without disability” value (at three to six months, 2014 review) is given as 5%, the “overall benefit with respect to living without disability” value (given within three hours of symptom onset) is given as 10% and the “increased risk of death” value (in the short term, 2014 review) is given as 2%. The “people with large strokes who developed substantial brain hemorrhage as a complication” value (in vivo) was 6.4%.
